# In patent US20230293630A1, “Coronavirus T Cell Epitopes and Uses Thereof” (priority 2020, published 2023):
# System: SARS-CoV-2-specific CD4+ T cells (OX40+CD137+) in PBMC
# Format: cell-based, human
# Conditions: not given
Sequence,Frequency of response (%),Magnitude by # of responding donors,Sum of response
PCPIHFYSKWYIRVG,55,491,2948
RCSFYEDFLEYHDVR,36,174,696

# Same assay, conditions: CD4+ T cell epitopes identified by AIM assay; percent of tested donors responding
row,Sequence,Frequency of response (%)
1,KKRWQLALSKGVHFV [SEQ ID NO 250],18
2,YIRVGARKSAPLIEL [SEQ ID NO 256],18
3,CAQKFNGLTVLPPLL,9
4,KNPLLYDANYFLCWH [SEQ ID NO 253],7

# Same assay, conditions: CD4+ T cell epitopes identified by AIM assay; share of donors responding
row,Sequence,Frequency of response (%)
1,YREAACCHLAKALND,8
2,SALEPLVDLPIGINI,9
3,IGNYKLNTDHSSSSD,15
4,CVADYSVLYNSASFS,8
5,NVPLHGTILTRPLLE,8
6,LTYTGAIKLDDKDPN,17
7,ITGGIAIAMACLVGL,17
8,VLAAVYRINWITGGI,42
9,GKQGNFKNLREFVFK,9
10,FIYNKIVDEPEEHVQ,14
11,STECSNLLLQYGSFC,8
12,LNQLTGYKKPASREL,8
13,IRGWIFGTTLDSKTQ,9
14,FLHFLPRVFSAVGNI,9
15,QRNFYEPQIITTDNT,7
16,SFLAHIQWMVMFTPL,8
17,SLQSCTQHQPYVVDD,9
18,LYENQKLIANQFNSA,7
19,LEAPFLYLYALVYFL,7

row,Sequence,Frequency of response (%)
1,GSSGVVNPVMEPIYD,7
2,YMSALNHTKKWKYPQ,9
3,RLFARTRSMWSFNPE,8
4,CCHLAKALNDFSNSG,8
5,TDEMIAQYTSALLAG,9
6,LPFFSNVTWFHAIHV,9
7,IKDLPKEITVATSRT,23
8,MWLSYFIASFRLFAR,25
9,IAGHHLGRCDIKDLP,25
10,VTLADAGFIKQYGDC,17
11,IQWMVMFTPLVPFWI,8
12,NLYDKLVSSFLEMKS,8
13,LLEQWNLVIGFLFLT,13
14,YADSFVIRGDEVRQI,8
15,ADAVIKTLQPVSELL,8
16,TRSMWSFNPETNILL,17
17,EDFLEYHDVRVVLDF,18
18,LQPELDSFKEELDKY,7

# Same assay, conditions: CD4+ T cell epitopes identified by AIM assay; sum of response per responding donor
row,Sequence,Magnitude by # of responding donors
1,YREAACCHLAKALND,109
2,SALEPLVDLPIGINI,167
3,IGNYKLNTDHSSSSD,134
4,KKRWQLALSKGVHFV [SEQ ID NO 250],144
5,CVADYSVLYNSASFS,210
6,NVPLHGTILTRPLLE,263
7,LTYTGAIKLDDKDPN,742
8,ITGGIAIAMACLVGL,207
9,VLAAVYRINWITGGI,504
10,GKQGNFKNLREFVFK,129
11,FIYNKIVDEPEEHVQ,243
12,STECSNLLLQYGSFC,314
13,YIRVGARKSAPLIEL [SEQ ID NO 256],366
14,LNQLTGYKKPASREL,168
15,IRGWIFGTTLDSKTQ,327
16,FLHFLPRVFSAVGNI,491
17,QRNFYEPQIITTDNT,302
18,SFLAHIQWMVMFTPL,554
19,SLQSCTQHQPYVVDD,1222
20,LYENQKLIANQFNSA,195
21,LEAPFLYLYALVYFL,272

row,Sequence,Magnitude by # of responding donors
1,GSSGVVNPVMEPIYD,186
2,YMSALNHTKKWKYPQ,109
3,RLFARTRSMWSFNPE,141
4,CCHLAKALNDFSNSG,111
5,TDEMIAQYTSALLAG,745
6,LPFFSNVTWFHAIHV,156
7,CAQKFNGLTVLPPLL,741
8,IKDLPKEITVATSRT,258
9,MWLSYFIASFRLFAR,343
10,IAGHHLGRCDIKDLP,522
11,VTLADAGFIKQYGDC,119
12,IQWMVMFTPLVPFWI,603
13,NLYDKLVSSFLEMKS,150
14,LLEQWNLVIGFLFLT,122
15,YADSFVIRGDEVRQI,160
16,ADAVIKTLQPVSELL,436
17,TRSMWSFNPETNILL,205
18,EDFLEYHDVRVVLDF,571
19,LQPELDSFKEELDKY,173
20,KNPLLYDANYFLCWH [SEQ ID NO 253],112

# Same assay, conditions: CD4+ T cell epitopes identified by AIM assay; total response
row,Sequence,Sum of response
1,YREAACCHLAKALND,109
2,SALEPLVDLPIGINI,167
3,IGNYKLNTDHSSSSD,267
4,CVADYSVLYNSASFS,210
5,NVPLHGTILTRPLLE,263
6,LTYTGAIKLDDKDPN,1484
7,ITGGIAIAMACLVGL,414
8,VLAAVYRINWITGGI,2519
9,GKQGNFKNLREFVFK,129
10,FIYNKIVDEPEEHVQ,486
11,STECSNLLLQYGSFC,314
12,LNQLTGYKKPASREL,168
13,IRGWIFGTTLDSKTQ,327
14,FLHFLPRVFSAVGNI,491
15,QRNFYEPQIITTDNT,302
16,SFLAHIQWMVMFTPL,554
17,SLQSCTQHQPYVVDD,1222
18,LYENQKLIANQFNSA,195
19,LEAPFLYLYALVYFL,272

row,Sequence,Sum of response
1,GSSGVVNPVMEPIYD,186
2,YMSALNHTKKWKYPQ,109
3,RLFARTRSMWSFNPE,141
4,CCHLAKALNDFSNSG,111
5,TDEMIAQYTSALLAG,745
6,LPFFSNVTWFHAIHV,156
7,IKDLPKEITVATSRT,774
8,MWLSYFIASFRLFAR,1030
9,IAGHHLGRCDIKDLP,1565
10,VTLADAGFIKQYGDC,237
11,IQWMVMFTPLVPFWI,603
12,NLYDKLVSSFLEMKS,150
13,LLEQWNLVIGFLFLT,243
14,YADSFVIRGDEVRQI,160
15,ADAVIKTLQPVSELL,436
16,TRSMWSFNPETNILL,410
17,EDFLEYHDVRVVLDF,1141
18,LQPELDSFKEELDKY,173

# Same assay, conditions: CD4+ T cell epitopes identified by AIM assay; total response summed over donors
row,Sequence,Sum of response
1,KKRWQLALSKGVHFV [SEQ ID NO 250],287
2,YIRVGARKSAPLIEL [SEQ ID NO 256],731
3,CAQKFNGLTVLPPLL,741
4,KNPLLYDANYFLCWH [SEQ ID NO 253],112
